Experimental data as given in patent publication US6727264B1 (Synaptic Pharmaceutical Corporation, priority 2001, dated 2004).
Blank lines part the entries; values can stand above or below the compound they belong to.

Key:
[1] = biological target: T1, human Histamine H1 receptor (Homo sapiens, UniProt P35367); assay: Binding affinity at cloned human Histamine H1 receptor; details: read-out: hH1 Ki
T1 construct: expressed in transfected cells

[2] = biological target: T2, rat MCH-1 (Rattus norvegicus, UniProt P97639); assay: Radioligand binding assay at cloned rat MCH1 receptor ([3H] Compound A); set-up: host or cells: Peak rapid 293 (Peakr293) cells, transient calcium phosphate transfection, membranes; details: cloned rat MCH1 receptor, membranes from Peakr293 cells, 0.08 nM [3H] Compound A; read-out: Ki (nM) rMCH1
T2 sequence (P97639 whole entry): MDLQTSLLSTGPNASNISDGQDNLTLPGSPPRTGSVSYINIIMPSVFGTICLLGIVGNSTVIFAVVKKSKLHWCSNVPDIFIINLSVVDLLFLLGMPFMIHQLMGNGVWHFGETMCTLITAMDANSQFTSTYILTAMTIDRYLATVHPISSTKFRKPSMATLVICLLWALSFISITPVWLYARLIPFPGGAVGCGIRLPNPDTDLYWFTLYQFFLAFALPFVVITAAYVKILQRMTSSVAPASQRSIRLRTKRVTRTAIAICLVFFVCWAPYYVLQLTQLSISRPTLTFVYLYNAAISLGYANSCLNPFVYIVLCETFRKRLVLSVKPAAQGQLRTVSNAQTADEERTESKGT

[3] = biological target: T3, human Alpha-1a Adrenergic receptor (Homo sapiens, UniProt P35348); assay: Binding affinity at cloned human Alpha-1a Adrenergic receptor; details: read-out: hALPHA-1a Ki
T3 construct: expressed in transfected cells
T3 sequence (P35348 1-466): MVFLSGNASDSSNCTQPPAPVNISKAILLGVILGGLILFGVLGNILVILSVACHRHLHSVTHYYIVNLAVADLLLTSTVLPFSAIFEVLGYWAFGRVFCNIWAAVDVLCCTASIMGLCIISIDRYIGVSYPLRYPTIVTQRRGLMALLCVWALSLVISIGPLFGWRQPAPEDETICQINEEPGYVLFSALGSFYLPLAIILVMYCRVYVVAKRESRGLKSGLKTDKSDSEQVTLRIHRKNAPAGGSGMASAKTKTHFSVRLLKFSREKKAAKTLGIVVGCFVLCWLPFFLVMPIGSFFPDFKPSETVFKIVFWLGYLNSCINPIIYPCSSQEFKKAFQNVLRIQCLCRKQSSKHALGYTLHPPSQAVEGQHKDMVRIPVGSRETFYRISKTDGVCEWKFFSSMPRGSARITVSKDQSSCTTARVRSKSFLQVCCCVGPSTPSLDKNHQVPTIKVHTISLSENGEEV

[4] = biological target: human Dopamine D2 receptor (Homo sapiens, UniProt P14416); assay: Binding affinity at cloned human Dopamine D2 receptor; details: read-out: hD2 Ki
human Dopamine D2 receptor, sequence (P14416 whole entry, the tested form may be a part): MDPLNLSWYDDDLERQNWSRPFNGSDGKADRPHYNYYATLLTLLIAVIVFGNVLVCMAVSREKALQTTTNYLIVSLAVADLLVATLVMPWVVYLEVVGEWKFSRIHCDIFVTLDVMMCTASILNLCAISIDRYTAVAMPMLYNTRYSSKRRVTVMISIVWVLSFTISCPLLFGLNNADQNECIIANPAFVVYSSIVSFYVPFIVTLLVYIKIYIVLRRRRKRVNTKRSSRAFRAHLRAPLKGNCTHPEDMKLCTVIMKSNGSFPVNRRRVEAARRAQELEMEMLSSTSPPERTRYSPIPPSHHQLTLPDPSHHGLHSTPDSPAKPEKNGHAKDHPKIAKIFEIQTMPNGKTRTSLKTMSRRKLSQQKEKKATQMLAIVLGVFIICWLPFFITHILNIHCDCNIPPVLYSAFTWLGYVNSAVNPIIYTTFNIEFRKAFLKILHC

[5] = system: Male Sprague Dawley rats; assay: Continuous Slow Transvesicular Infusion (CSTI) rat model; format: in vivo; set-up: key: F: Produced an increase in bladder capacity in rats relative to baseline capacity; details: intragastric administration, vs baseline capacity
Method: The effects of compounds on the micturition reflex were assessed in the “distension-induced rhythmic contraction” (DIRC), as described in previous publications (e.g. Maggi et al, 1987; Morikawa et al, 1992), and Continuous Slow Transvesicular Infusion (CSTI) models in rats. Male Sprague Dawley rats weighing approximately 300 g were used for the study. Rats were anaesthetized with pentobarbitone sodium (50 mg/kg, i.p). Through a median abdominal incision, bladder was exposed and a polyethylene cannula (PE 50) was introduced into the bladder through a small cut on the dome of the bladder and the cannula was secured with a purse string suture. The other end of the cannula was exteriorized subcutaneously at the dorsal neck area. Similarly, another cannula (PE 50) was introduced into the stomach through a paramedian abdominal incision with the free end exteriorized subcutaneously to the neck region. The surgical wounds were closed with silk 4-0 suture and the animal was allowed to recover with appropriate post surgical care. On the following day, the animal was placed in a rat restrainer. The open end of the bladder-cannula was connected to a pressure transducer as well as infusion pump through a three-way stopcock. The bladder voiding cycles were initiated by continuous infusion of normal saline at the rate of 100 μl/min. The repetitive voiding contractions were recorded on a Power Lab on-line data acquisition software. After recording the basal voiding pattern for an hour, the test drug or vehicle was administered directly into stomach through the intragastric catheter and the voiding cycles were monitored for 5 hours. Micturition pressure and frequency were calculated before and after the treatment (at every 30 min interval) for each animal. Bladder capacity was calculated from the micturition frequency, based on the constant infusion of 100 ul/min. The effect of the test drug was expressed as a percentage of basal, pre-drug bladder capacity. WAY 100635 was used as positive control for comparison.

[6] = system: Female Sprague Dawley rats; assay: Distension-induced rhythmic contraction (DIRC) model of the micturition reflex; format: in vivo, rat; set-up: key: E: Produced a significant increase in contraction interval relative to pre-drug interval; details: urethane-anesthetized female rats, i.v. or i.p.; vs pre-drug interval
Method: The effects of compounds on the micturition reflex were assessed in the “distension-induced rhythmic contraction” (DIRC), as described in previous publications (e.g. Maggi et al, 1987; Morikawa et al, 1992), and Continuous Slow Transvesicular Infusion (CSTI) models in rats. Female Sprague Dawley rats weighing approximately 300 g were anesthetized with subcutaneous urethane (1.2 g/kg). The trachea was cannulated with PE240 tubing to provide a clear airway throughout the experiment. A midline abdominal incision was made and the left and right ureters were isolated. The ureters were ligated distally (to prevent escape of fluids from the bladder) and cannulated proximally with PE10 tubing. The incision was closed using 4-0 silk sutures, leaving the PE10 lines routed to the exterior for the elimination of urine. The bladder was canulated via the transurethral route using PE50 tubing inserted 2.5 cm beyond the urethral opening. This cannula was secured to the tail using tape and connected to a pressure transducer. To prevent leakage from the bladder, the cannula was tied tightly to the exterior urethral opening using 4-0 silk. To initiate the micturition reflex, the bladder was first emptied by applying pressure to the lower abdomen, and then filled with normal saline in […] (maximum=2 ml) until spontaneous bladder contractions occurred (typically 20-40 mmHg at a rate of one contraction every 2 to 3 minutes. Once a regular rhythm was established, vehicle (saline) or Test Compounds were administered i.v. or i.p. to explore their effects on bladder activity. The 5-HT1A antagonist WAY-100635 was given as a positive control. Data were expressed as contraction interval (in seconds) before drug application (basal), or after the application of vehicle or test article.

[7] = biological target: T2, rat MCH-1; details: cited from earlier work
[8] = biological target: human MCH-1 (Homo sapiens, UniProt Q99705); details: cited from earlier work
human MCH-1, sequence (Q99705 whole entry): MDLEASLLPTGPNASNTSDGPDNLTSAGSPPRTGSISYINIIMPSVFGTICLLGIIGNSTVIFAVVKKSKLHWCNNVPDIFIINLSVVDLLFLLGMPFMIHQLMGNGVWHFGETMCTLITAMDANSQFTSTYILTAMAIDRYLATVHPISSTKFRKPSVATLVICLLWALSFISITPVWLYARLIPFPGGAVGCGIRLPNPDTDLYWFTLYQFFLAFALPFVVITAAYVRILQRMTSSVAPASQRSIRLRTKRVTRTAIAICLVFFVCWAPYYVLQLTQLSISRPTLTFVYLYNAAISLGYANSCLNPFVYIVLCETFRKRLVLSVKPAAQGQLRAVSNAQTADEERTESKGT

[9] = system: food intake induced by the intracerebroventricular application of MCH; details: in vivo; cited from earlier work
[10] = system: G4F-7 cells; details: cited from earlier work

T1 sequence (P35367 whole entry): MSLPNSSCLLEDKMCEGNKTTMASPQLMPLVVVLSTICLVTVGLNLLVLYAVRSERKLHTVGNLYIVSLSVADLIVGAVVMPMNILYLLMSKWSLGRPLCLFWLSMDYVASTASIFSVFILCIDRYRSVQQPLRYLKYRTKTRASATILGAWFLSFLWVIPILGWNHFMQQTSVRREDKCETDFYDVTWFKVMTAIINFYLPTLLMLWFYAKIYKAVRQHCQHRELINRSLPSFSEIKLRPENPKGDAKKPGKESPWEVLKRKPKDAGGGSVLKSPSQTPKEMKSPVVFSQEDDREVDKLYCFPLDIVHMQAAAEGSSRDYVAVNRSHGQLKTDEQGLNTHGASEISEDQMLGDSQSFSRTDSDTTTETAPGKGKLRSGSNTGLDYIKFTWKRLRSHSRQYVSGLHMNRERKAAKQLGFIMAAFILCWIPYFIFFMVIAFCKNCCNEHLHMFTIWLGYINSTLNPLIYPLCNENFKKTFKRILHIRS

Ki [1]: > 50000 nM | Ki [2]: 32.5 nM | Ki [3]: 232 nM | Ki [4]: 46.6 nM
Compound: CC(C)C(=O)Nc1cccc(C2CCN(CCC(OC(=O)c3cccc4ccccc34)c3ccccc3)CC2)c1 (stereo in doubt) [Example 69, (1S)-3-{4-[3-(ISOBUTYRYLAMINO)PHENYL]-1-PIPERIDINYL}-1-PHENYLPROPYL 1-NAPHTHOATE]

Compound: Cc1ccc(C(=O)CCCN2CCC(c3cccc(NC(=O)C(C)C)c3)CC2)cc1C [Example 2]
CSTI (bladder capacity) [5]: F | DIRC (contraction interval) [6]: E

Compound: CC(C)C(=O)Nc1cccc(C2CCN(CCCC(=O)c3ccc(Cl)cc3)CC2)c1 [Example 10]
CSTI (bladder capacity) [5]: F | DIRC (contraction interval) [6]: E

Ki [4]: 34900 nM
Compound: COC(CCN1CCC(c2cccc(NC(=O)C(C)C)c2)CC1)c1ccccc1 (stereo not drawn) [Example 37]

Ki [1]: 2840 nM | Ki [2]: 11.8 nM | Ki [3]: 2470 nM | Ki [4]: 19000 nM
Compound: CC(=O)Nc1cccc(C2CCN(CCCNC(=O)N3C(=O)O[C@H](C)[C@@H]3c3ccc(F)c(F)c3)CC2)c1 [Example 75]

Ki [1]: > 50000 nM
Compound: CC(C)C(=O)Nc1cccc(C2CCN(CC[C@H](Oc3ccc(-c4ccccc4)cc3)c3ccccc3)CC2)c1 [Example 78]

Compound: COc1ccc2[nH]c(-c3ccccc3)c(CCCN3CCC(c4cccc(NC(=O)C(C)C)c4)CC3)c2c1 [Example 91]
CSTI (bladder capacity) [5]: F | DIRC (contraction interval) [6]: E

Compound: CCn1c2ccccc2c2cc(CN3CCC(c4cccc(NC(=O)C(C)C)c4)CC3)ccc21 [Example 99]
CSTI (bladder capacity) [5]: F | DIRC (contraction interval) [6]: E

Compound: Cc1onc(-c2c(Cl)cccc2Cl)c1C(=O)NCCCCCN1CCC(c2cccc(NC(=O)C(C)C)c2)CC1 [Example 106]
CSTI (bladder capacity) [5]: F | DIRC (contraction interval) [6]: E

Compound: CC(=O)c1cccc(O[C@H](CCN2CCC(c3cccc(NC(=O)C(C)C)c3)CC2)c2ccccc2)c1 [Example 116]
CSTI (bladder capacity) [5]: F | DIRC (contraction interval) [6]: E

Compound: CN(C)CC1CCc2cc(NC(=O)c3ccc(-c4ccc(F)cc4)cc3)ccc2C1 (stereo not drawn) [Example T-226296, T-226296]
affinity for the MCH-1 receptor [7]: 5 to 9 nM | affinity for the MCH-1 receptor [8]: 5 to 9 nM | food intake induced by intracerebroventricular MCH [9]: inhibit food intake

Compound: [Phe^13, Tyr^19]-MCH
Kd ([10]; radioiodinated ligand, G4F-7 cells): 0.118 nM

Compound: rat ANF
Ki ([10]; mouse melanoma cells, read-out: Ki (inhibition of [Phe13,Tyr19]-MCH binding)): 116 nM
